tested on: ATF4; test: HEK-ATF4 High Content Imaging assay (prevention of Tunicamycin induced ISR); assay type: cell-based; conditions: Homo sapiens, Wild-type HEK293 cells, 6 h incubation, ATF4 signal ratio between nucleus and cytoplasm
Method: Example compounds were tested in the HEK-ATF4 High Content Imaging assay to assess their pharmacological potency to prevent Tunicamycin induced ISR. Wild-type HEK293 cells were plated in 384-well imaging assay plates at a density of 12,000 cells per well in growth medium (containing DMEM/F12, 10% FBS, 2 mM L-Glutamine, 100 U/mL Penicillin—100 μg/mL Streptomycin) and incubated at 37° C., 5% CO2. 24 h later, the medium was changed to 50 μL assay medium per well (DMEM/F12, 0.3% FBS, 2mM L-Glutamine, 100 U/mL Penicillin—100 μg/mL Streptomycin). Example compounds were serially diluted in DMSO, spotted into intermediate plates and prediluted with assay medium containing 3.3 […] Tunicamycin to give an 11-fold excess of final assay concentration. In addition to the example compound testing area, the plates also contained multiples of control wells for assay normalization purposes, wells containing Tunicamycin but no example compounds (High control), as well as wells containing neither example compound nor Tunicamycin (Low control). The assay was started by transferring 5 μL from the intermediate plate into the assay plates, followed by incubation for 6 h at 37° C., 5% CO2. Subsequently, cells were fixed (4% PFA in PBS, 20 min at r.t.) and submitted to indirect ATF4 immunofluorescence staining (primary antibody rabbit anti ATF4, clone D4B8, Cell Signaling Technologies; secondary antibody Alexa Fluor 488 goat anti-rabbit IgG (H+L), Thermofisher Scientific). Nuclei were stained using Hoechst dye (Thermofisher Scientific), and plates were imaged on an Opera Phenix High Content imaging platform equipped with 405 nm and 488 nm excitation. Finally, images were analyzed using script based algorithms. The main readout HEK-ATF4 monitored the ATF4 signal ratio between nucleus and cytoplasm. Tunicamycin induced an increase in the overall ATF4 ratio signal, which was prevented by ISR modulating example compounds. In addition, HEK-CellCount readout was derived from counting the number of stained nuclei corresponding to healthy cells. This readout served as an internal toxicity control.

| IC50 [µM] | SMILES |
| --- | --- |
| 2 to 15 | O=C(COc1ccc(Cl)c(F)c1)N[C@H]1CC[C@H](C(=O)N[C@H]2CC[C@@H](OC(F)(F)F)CC2)NC1 [Example 15, (2R,5S)-5-[2-(4-chloro-3-fluorophenoxy)acetamido]-N-[(1s,4s)-4-(trifluoromethoxy)cyclohexyl]piperidine-2-carboxamide] |
| 0.001 to 0.5 | O=C(COc1ccc(Cl)c(F)c1)N[C@H]1CC[C@H](C(=O)N2Cc3ccc(C(F)(F)F)cc3C2)NC1 [Example 40, 2-(4-chloro-3-fluorophenoxy)-N-[(3S,6R)-6-[5-(trifluoromethyl)-2,3-dihydro-1H-isoindole-2-carbonyl]piperidin-3-yl]acetamide] |
| 0.001 to 0.5 | O=C(COc1ccc(Cl)c(F)c1)N[C@H]1CC[C@H](C(=O)Nc2ccc3c(c2)OC(F)(F)O3)NC1 [Example 39, (2R,5S)-5-[2-(4-chloro-3-fluorophenoxy)acetamido]-N-(2,2-difluoro-2H-1,3-benzodioxol-5-yl)piperidine-2-carboxamide] |
| 0.001 to 0.5 | O=C(COc1ccc(Cl)c(F)c1)N[C@H]1CC[C@H](C(=O)Nc2cccc(C(F)(F)F)c2)NC1 [Example 12, (2R,5S)-5-[2-(4-chloro-3-fluorophenoxy)acetamido]-N-[3-(trifluoromethyl)phenyl]piperidine-2-carboxamide] |
| 2 to 15 | O=C(COc1ccc(Cl)c(F)c1)N[C@H]1CC[C@H](C(=O)NCc2ccc(C(F)(F)F)o2)NC1 [Example 17, (2R,5S)-5-[2-(4-chloro-3-fluorophenoxy)acetamido]-N-{[5-(trifluoromethyl)furan-2-yl]methyl}piperidine-2-carboxamide] |
| 0.001 to 0.5 | O=C(COc1ccc(Cl)c(F)c1)N[C@H]1CC[C@H](C(=O)Nc2cccc(Cl)c2)NC1 [Example 11, (2R,5S)-5-[2-(4-chloro-3-fluorophenoxy)acetamido]-N-(3-chlorophenyl)piperidine-2-carboxamide] |
